Laboratory results from patent US20240287194A1, “Targeting Extracellular Matrix Proteins to Regulate NK Cell Function in Peripheral Tissues” (The General Hospital Corporation, priority 2021, published 2024).

B1: elastin: Elastin (Mouse lung, Sigma), dermal ECM protein (protein, UniProt P54320 28-860, looked up)
Elastin: GGVPGAVPGGLPGGVPGGVYYPGAGIGGLGGGGGALGPGGKPPKPGAGLLGTFGAGPGGLGGAGPGAGLGAFPAGTFPGAGALVPGGAAGAAAAYKAAAKAGAGLGGVGGVPGGVGVGGVPGGVGVGGVPGGVGVGGVPGGVGGIGGIGGLGVSTGAVVPQVGAGIGAGGKPGKVPGVGLPGVYPGGVLPGTGARFPGVGVLPGVPTGTGVKAKAPGGGGAFAGIPGVGPFGGQQPGVPLGYPIKAPKLPGGYGLPYTNGKLPYGVAGAGGKAGYPTGTGVGSQAAAAAAKAAKYGAGGAGVLPGVGGGGIPGGAGAIPGIGGIAGAGTPAAAAAAKAAAKAAKYGAAGGLVPGGPGVRLPGAGIPGVGGIPGVGGIPGVGGPGIGGPGIVGGPGAVSPAAAAKAAAKAAKYGARGGVGIPTYGVGAGGFPGYGVGAGAGLGGASPAAAAAAAKAAKYGAGGAGALGGLVPGAVPGALPGAVPAVPGAGGVPGAGTPAAAAAAAAAKAAAKAGLGPGVGGVPGGVGVGGIPGGVGVGGVPGGVGPGGVTGIGAGPGGLGGAGSPAAAKSAAKAAAKAQYRAAAGLGAGVPGFGAGAGVPGFGAGAGVPGFGAGAGVPGFGAGAGVPGFGAGAVPGSLAASKAAKYGAAGGLGGPGGLGGPGGLGGPGGLGGAGVPGRVAGAAPPAAAAAAAKAAAKAAQYGLGGAGGLGAGGLGAGGLGAGGLGAGGLGAGGLGAGGLGAGGLGAGGGVSPAAAAKAAKYGAAGLGGVLGARPFPGGGVAARPGFGLSPIYPGGGAGGLGVGGKPPKPYGGALGALGYQGGGCFGKSCGRKRK

Legend:
[1] = test system: B2m^−/− B16-F10 melanoma cells; experiment: Subcutaneous (S.C.) B2m−/− B16 melanoma model; assay type: in vivo, mice; settings: for proportions of tumor infiltrating Tregs, macrophages and MDSCs: B2m−/− B16 melanoma at the endpoint; for NK cell infiltration of the tumor parenchyma: B2m−/− B16 melanoma, day 3 post-S.C. injection; for T cell recruitment into the B2m−/− B16 tumors: CD3+ T cells, day 3 post S.C. injection; for IFNγ expression of tumor NK cells / PD-1 expression of tumor NK cells / granzyme B expression of tumor NK cells: NK cells from B2m−/− B16 melanoma, day 19-21 post-S.C. injection; for survival / B2m−/− melanoma growth in the skin: S.C. B2m−/− B16 in WT mice, losartan 60 mg/kg or DHB 40 mg/kg I.P. every day; for B2m−/− melanoma growth in the skin: control IgG vs anti-NK1.1
Description: All tumor experiments were performed in eight to twelve-week-old C57BL/6 female WT or Ncr1^iCre ROSA^mT-mG mice. For the S.C. tumor model, 2.5×10^5 B16-F10 WT or B2m^−/− cells were subcutaneously injected into the shaved flanks of mice. Tumor growth was measured every other day using a digital caliper starting from day seven. Tumor volume was calculated as follows: […]
To inhibit collagen deposition in and around the tumor, mice were administered with 60 mg/kg of Losartan Potassium (Fisher Scientific, catalog no. L02325G) or 40 mg/kg of 3,4-dihydroxybenzoic acid (DHB) (Sigma-Aldrich, catalog no. 37580) in 100 μL of sterile 1×PBS while the control mice were administered with the equivalent volume of sterile 1×PBS. These drugs were injected I.P. every day for the duration of the study starting the day of tumor inoculation.
For the collagenase/hyaluronidase experiment, 2.5×10^5 B16-F10 B2m^−/− cells were resuspended in 1×collagenase and hyaluronidase mix (Stemcell, catalog no. 07912) and were subcutaneously injected into the shaved flanks of mice. To deplete collagen within the tumor, mice were administered with 1×collagenase and hyaluronidase mix (Stemcell, catalog no. 07912) in 100 μL of sterile 1×PBS while control mice were administered with the equivalent volume of sterile 1×sPBS. These enzymes were injected via intratumoral (I.T.) route starting on the day of tumor inoculation (day 0), day 1, day 2, day 3, day 4 and then every other day (day 6, 8, 10, etc.) until the end of the study. Except for day 3 tumor harvest, mice were euthanized when a tumor reached 2 cm in diameter in accordance with IACUC protocols. For early time point tumor analysis, specific Ncr1^iCre, ROSA^mT-mG mice from PBS, Losartan and DHB group were euthanized on day 3 post tumor inoculation, the implanted tumor harvested and fixed in pre-chilled 95% ethanol overnight at 4° C. before subjecting them to subsequent processing.
Terminal subcutaneous tumors were excised with the skin and weighed before cutting in half. One half was placed in appropriate fixative while the other half was separated from the skin and chopped with scissors into ˜1 mm pieces. These were transferred to a 15 mL tube with 10 mL digest buffer (RPMI 1640 (Life Technologies, catalog no. 21870076), 200 U/mL Collagenase IV (Worthington Biochemical, Lakewood, NJ, USA)) and incubated for 2 hours at 37° C. with shaking. Following incubation, digested tumor was poured onto a […] strainer placed in a 50 mL tube. The 15 mL tube was rinsed with ˜3 mL of 1×PBS/2% FCS/5 mM EDTA and added to the digested sample. The tumor was mashed with a plunger through the […] strainer which was then rinsed ˜3 times with a small volume of 1×PBS/2% FCS/5 mM EDTA. The tumor-infiltrating CD45^+ immune cells were isolated by magnetic-based positive selection using CD45 microbeads (Miltenyi Biotec, catalog no. 130-052-301) according to the manufacturer's protocol. The stained cells were passed through the LS columns (Miltenyi Biotec, catalog no. 130-042-401) placed between magnets for isolation of immune cells. The isolated CD45^+ cells were centrifuged at 300 g for 5 minutes at 4° C. and resuspended in 2.4G2 blocking solution before flow cytometry staining.
Mice were I.P. injected with 500 μg/mouse of IgG isotype control (Southern Biotech, Birmingham, AL, USA, catalog no. 0107-01) or depleting anti-NK1.1 antibody (clone PK136, BioXcell, West Lebanon, NH, USA, catalog no. BE0036) two days before tumor cell injection and 250 μg/mouse every other day starting the day of the tumor cell injection. For depletion of NK or T cells (anti-CD4 antibody, clone GK1.5, BioXcell; anti-CD8a antibody, clone YTS 169.4, BioXcell) in a skin transplant setting, 500 μg/mouse of each depleting antibody were injected the day of the transplant and 250 μg at days indicated in FIG. S5E. […]

[2] = test system: Ly49H^+ splenic cNK cells; experiment: Splenic cNK cell co-culture with m157-MEF in the presence of ECM proteins (CD107a, IFNγ flow cytometry); assay type: cell-based, mice; settings: for altering NK cell functions (CD107a, IFNγ): co-culture with m157-MEF
Description: (§1) Single-cell suspensions from all samples were prepared by straining through a 70 μm filter. 2.4G2 supernatant treated cells were stained in 1×PBS/2% FCS/5 mM EDTA with the appropriate surface antibodies (Table 2) for 30 minutes at 4° C., washed and analyzed by flow cytometry. For intracellular staining, cells were fixed and permeabilized using True-Nuclear Transcription Buffer set (Biolegend, catalog no. 424401) according to the manufacturer's protocol then incubated with appropriate antibodies (Table 2) for 60 min at RT, washed and analyzed by flow cytometry. For in vitro signaling experiments, following the specified time points, cells were fixed with an equal volume of pre-warmed 1×aldehyde based fixation buffer (Biolegend, catalog no. 420801) for 20 min at RT. Fixed cells were permeabilized by drop-wise addition of chilled methanol-based solution True-Phos Perm Buffer (Biolegend, catalog no. 425401) while mixed on a vortex. Cells were stored in-20° C. and dark for 1-3 days before washing them two times with ˜3 mL of 1×PBS/2% FCS/5 mM EDTA. Cells were subsequently stained with appropriate antibodies against surface markers and specific phosphorylated signaling proteins (Table 2) for 60 min at RT, washed and analyzed by flow cytometry. Cells were assayed on a BD LSRFortessa X-20 flow cytometer (BD Bioscience, Billerica, MA, USA) and data were analyzed using FlowJo software Version 10 (Tree Star, Ashlad, OR, USA). NK cells in WT non-reporting mice were identified as CD3^− NK1.1^+NKp46^+.
(§2) For in vitro experiments in the presence of ECM components, Collagen I (Rat tail, Sigma, catalog no. 08-115), collagen III (Human placenta, Sigma, catalog no. C4407), collagen IV (Mouse, Sigma, catalog no. C0543), Elastin (Mouse lung, Sigma, catalog no. E6402), Laminin (Mouse, Thermo Fisher, catalog no. 23017015) and Fibronectin (Rat plasma, Sigma, catalog no. F0635) were diluted in 1×PBS and coated at 20 μ ENREF 45 g/cm^2 in a 24 well tissue culture plate for 30 minutes at RT with gentle shaking followed by overnight at 4° C. Spleens from Ncr1^iCre, ROSA^mT-mG, WT or Lair1^−/− mice were harvested as described above. Then, 5×10^6 splenocytes resuspended in RPMI 10% FBS/1% P/S/20 mM Glutamine were mixed with 20 μg of respective ECM protein per well and were incubated at RT for 10 minutes. Splenocytes and ECM mix were plated onto the ECM-coated well and were incubated at 37° C./5% CO2 for 2 hours (short ECM exposure) or 17 hours (long ECM exposure). At the end of the incubation, 1×10^5 MEF (WT or m157) cells were added to each well to obtain a 50:1 splenocyte:MEF ratio. For cell signaling experiments, hydrogen peroxide (H2O2) at a final concentration of 2.5 mM or 1×10^5 MEF-m157 cells were added to each well except in “0 min” wells which were unstimulated and fixed immediately. Splenocytes were stimulated with 2.5 mM H2O2 for 2 min and 5 min or were co-cultured with MEF-m157 for 30 min and 60 min (signaling) or 7 hours (CD107a and IFN[…]) at 37° C./5% CO2. Splenocytes and MEF in co-culture were supplemented with mIL-12 (10 ng/mL, Biolegend, catalog no. 577002), mIL-15 (1 ng/mL, Shenandoah Biotechnology, catalog no. 200-07) and hIL-2 (Biolegend, catalog no. 589104; only long ECM exposure) as well as for CD107a/IFN experiments. 1 μL of anti-CD107a-BV421 (1D4B, Biolegend, catalog no. 121618), 1×Brefeldin A (Biolegend, catalog no. 420601) and 1×Monensin (Biolegend, catalog no. 420701) were added. Following the co-culture, cells were washed with 1×PBS/2% FCS/5 mM EDTA and the pellet was resuspended in 2.4G2 blocking solution before flow cytometry staining.

splenic cNK cells = experiment: Phospho-signaling in splenic cNK cells stimulated with H2O2 in the presence of ECM proteins; assay type: cell-based, mice
Description: as §1, §2

Row | Molecule | proportions of tumor infiltrating Tregs, macrophages and MDSCs [1] | NK cell infiltration of the tumor parenchyma [1] | T cell recruitment into the B2m−/− B16 tumors [1] | IFNγ expression of tumor NK cells [1] | PD-1 expression of tumor NK cells [1] | granzyme B expression of tumor NK cells [1] | survival [1] | B2m−/− melanoma growth in the skin [1] | altering NK cell functions (CD107a, IFNγ) ([2]; 9 and 24 hours) | further results
1 | O=C(O)c1ccc(O)c(O)c1 [DHB, 3,4-dihydroxybenzoic acid] | remained unaltered or increased | highly infiltrated the tumor parenchyma | did not induce T cell recruitment | markedly elevated expression | markedly elevated expression | markedly elevated expression | significant survival benefit | protected the mice from B2m^−/− melanoma growth in the skin in an NK cell-dependent manner |  | 
2 | CCCCc1nc(Cl)c(CO)n1Cc1ccc(-c2ccccc2-c2nn[nH]n2)cc1 [losartan, Losartan Potassium] | remained unaltered or increased | highly infiltrated the tumor parenchyma | did not induce T cell recruitment | markedly elevated expression | markedly elevated expression | markedly elevated expression | significant survival benefit | protected the mice from B2m^−/− melanoma growth in the skin in an NK cell-dependent manner |  | 
3 | collagen IV: collagen IV (Mouse, Sigma), epidermal basement membrane protein |  |  |  |  |  |  |  |  | played a minor role | 
4 | fibronectin: Fibronectin (Rat plasma, Sigma), epidermal basement membrane protein |  |  |  |  |  |  |  |  | played a minor role | 
5 | laminin: Laminin (Mouse, Thermo Fisher), epidermal basement membrane protein |  |  |  |  |  |  |  |  | played a minor role | 
6 | B1 |  |  |  |  |  |  |  |  |  | Ly49H+ cNK cell degranulation (CD107a) ([2]; 9 and 24 hours co-culture with m157-MEF, ECM coated 20 μg/cm2): potently blocked; IFNγ production by Ly49H+ cNK cells ([2]; exposed to m157-MEF, 9 and 24 hours): suppressed; pERK1/2 levels in NK cells (splenic cNK cells; H2O2 2.5 mM, 2 and 5 min): markedly reduced; pPLCγ1 levels in NK cells (splenic cNK cells; H2O2 2.5 mM, 2 and 5 min): markedly reduced; pSTAT3 in NK cells (splenic cNK cells; baseline and 2- and 5-minute exposure to H2O2): increased pSTAT3 at baseline; pSTAT5 in NK cells (splenic cNK cells; baseline and 2- and 5-minutes exposure to H2O2): highly induced
